Laboratory results published in patent US6875761B2 (Eisai Co., Ltd., priority 1997, dated 2005).
Where a name gives a salt, the structure may show the parent alone.

Columns and labels:
serotonin 1A receptor = target: T1, serotonin 1A receptor (Rattus norvegicus, UniProt P19327); test: Binding test on [3H] 8-hydroxy-dipropylaminotetralin, hippocampus receptor fraction; parameters: species or system SD rats; settings: rat hippocampus receptor fraction, 0.5 nM [3H] 8-OH-DPAT, room temperature 30 min; read-out: 5HT1
T1 construct: To the receptor fraction of the hippocampus were added a test compound and 0.5 nM of [^3H]; 8-hydroxy-dipropylaminotetralin; from tissue; host or cells: rat hippocampus membrane fraction
T1 sequence (P19327 1-422): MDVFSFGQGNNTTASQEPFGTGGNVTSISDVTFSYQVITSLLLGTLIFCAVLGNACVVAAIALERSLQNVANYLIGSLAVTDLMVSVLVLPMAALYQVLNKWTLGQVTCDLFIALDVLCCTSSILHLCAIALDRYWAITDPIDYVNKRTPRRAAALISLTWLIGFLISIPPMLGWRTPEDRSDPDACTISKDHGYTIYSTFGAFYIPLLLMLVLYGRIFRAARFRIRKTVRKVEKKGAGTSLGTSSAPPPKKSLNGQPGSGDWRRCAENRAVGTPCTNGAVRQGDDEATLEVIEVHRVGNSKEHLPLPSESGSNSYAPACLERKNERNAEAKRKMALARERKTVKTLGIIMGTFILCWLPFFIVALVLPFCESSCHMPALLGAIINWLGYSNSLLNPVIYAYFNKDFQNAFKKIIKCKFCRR

serotonin 2 receptor = target: T2, serotonin 2 receptor (Rattus norvegicus, UniProt P14842); test: Binding test on [3H] ketanserin, cerebral cortex receptor fraction; parameters: species or system SD rats; settings: 0.3 nM [3H] ketanserin, 37° C. 15 min, read-out: 5HT2
T2 construct: To the receptor fraction of the cerebral cortex were added a test compound and 0.3 nM of [^3H] ketanserin; from tissue; host or cells: rat cerebral cortex membrane fraction
T2 sequence (P14842 whole entry): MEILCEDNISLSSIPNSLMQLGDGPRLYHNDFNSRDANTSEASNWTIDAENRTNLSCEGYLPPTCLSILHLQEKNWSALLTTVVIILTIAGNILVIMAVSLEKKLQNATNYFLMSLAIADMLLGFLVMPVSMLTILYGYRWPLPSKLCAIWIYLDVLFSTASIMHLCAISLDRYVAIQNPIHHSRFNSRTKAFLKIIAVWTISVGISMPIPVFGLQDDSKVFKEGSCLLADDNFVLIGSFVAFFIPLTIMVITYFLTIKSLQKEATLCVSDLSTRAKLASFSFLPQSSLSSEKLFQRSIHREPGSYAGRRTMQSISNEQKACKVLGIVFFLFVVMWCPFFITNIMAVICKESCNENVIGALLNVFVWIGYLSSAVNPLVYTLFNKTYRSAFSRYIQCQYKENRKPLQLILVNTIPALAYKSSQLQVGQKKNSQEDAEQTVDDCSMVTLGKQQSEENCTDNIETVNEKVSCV

Ki (serotonin 1A receptor) [nM] | Ki (serotonin 2 receptor) [nM] | Structure (SMILES)
56.4 | 0.2 | CCN1CCN(c2nc(C#Cc3ccc(OC)cc3)cc3ccccc23)CC1 [Example 178, 1-(1-Ethylpiperazin-4-Yl)-3-(4-Methoxyphenyl)Ethynylisoquinoline Dihydrochloride]
42.7 | 95.2 | CCN1CCN(c2nc(Sc3ccccn3)cc3ccccc23)CC1 [Example 378, 1-(4-Ethylpiperazin-1-yl)-3-(2-Pyridylthio)Isoquinoline Oxalate]
6.1 | 12.4 | CCN1CCN(c2nc(-c3ccc(N4CCC(O)CC4)nc3)cc3ccccc23)CC1 [Example 152, 1-(4-ethylpiperazin-1-yl)-3-[2-(4-hydroxypiperidin-1-yl)pyridin-5-yl]isoquinoline trihydrochloride]
5.32 | 175 | CCN1CCN(c2nc(-c3ccc(OCC4OCCO4)cc3)cc3sccc23)CC1 [Example 460, 4-(4-ethylpiperazin-1-yl)-6-[4-(1,3-dioxolan-2-yl)methoxyphenyl]thieno[3,2-c]pyridine oxalate]
13 | 6.7 | CCS(=O)(=O)NCc1ccc(-c2cc3ccccc3c(N3CCN(CCO)CC3)n2)cc1 [Example 243, 3-(4-ethylsulfonylaminomethylphenyl)-1-[4-(2-hydroxyethyl)piperazin-1-yl]isoquinoline Hydrochloride]
97.3 | 13.8 | CCN1CCN(c2nc(-c3ccc(C4=CCOCC4)cc3)cc3ccsc23)CC1 [Example 266, 5-[4-(5,6-dihydro-2H-pyran-4-yl)phenyl]-7-(4-ethylpiperazin-1-yl)thieno[2,3-c]pyridine Hydrochloride]
63.3 | 281 | CCN1CCN(c2nc(-c3ccc(C(O)C4CCCCC4)cc3)cc3ccsc23)CC1 (centres unmarked) [Example 457, 7-(4-Ethylpiperazin-1-yl)-5-[4-(cyclohexylhydroxymethyl)phenyl]thieno[2,3-c]pyridine dihydrochloride]
16.5 | 86 | CCN1CCN(c2nc(-c3ccc(OCCO)nc3)cc3ccsc23)CC1 [Example 268, 5-[2-(2-hydroxyethoxy)pyridin-5-yl]-7-(4-ethylpiperazin-1-yl)thieno[2,3-c]pyridine Oxalate]
1.1 | 0.24 | CCCNS(=O)(=O)c1ccc(-c2cc3ccccc3c(N3CCN(CC)CC3)n2)cc1 [Example 353, 1-(4-ethylpiperazin-1-yl)-3-[4-(N-propylsulfamoyl)phenyl]isoquinoline dihydrochloride]
11.7 | 7.4 | CCN1CCN(c2nc(-c3ccc(C(O)CCO)cc3)cc3ccccc23)CC1 (centres unmarked) [Example 24, 3-[4-(1,3-dihydroxypropyl)phenyl]-1-(4-ethylpiperazin-1-yl)isoquinoline hydrochloride]
18.7 | 9.7 | CCC(=O)NCc1ccc(-c2cc3ccccc3c(N3CCN(CC)CC3)n2)cc1 [Example 85, 3-(4-Ethylcarbonylaminomethylphenyl)-1-(4-ethylpiperazin-1-yl)isoquinoline Hydrochloride]
8 | 5.9 | CCN1CCN(c2nc(-c3ccc([C@H]4CC[C@H](O)CC4)cc3)cc3ccccc23)CC1 [Example 398, 1-(4-Ethylpiperazin-1-yl)-3-[4-(trans-4-Hydroxycyclohexyl)Phenyl]Isoquinoline Dihydrochloride]
27.3 | 6.6 | CCN1CCN(c2nc(-c3ccc(NCCO)cc3)cc3ccccc23)CC1 [Example 67, 3-[4-(2-Hydroxyethyl)Aminophenyl]-1-(4-Ethylpiperazin-1-Yl)Isoquinoline Hydrochloride]
109 | 72.2 | CCN1CCN(c2nc(-c3ccc(OCCO)cc3)cc3cccnc23)CC1 [Example 245, 8-(1-ethylpiperazin-4-yl)-6-[4-(2-hydroxyethoxy)phenyl]-1,7-naphthyridine Dihydrochloride]
91.6 | 7.62 | CCN1CCN(c2nc(C=C(COC)c3ccccc3)cc3ccccc23)CC1 (stereo in doubt) [Example 208, 3-[(E)-2-Methoxymethyl-2-Phenylethenyl]-1-(4-Ethylpiperazin-1-Yl)Isoquinoline Oxalate]
3.5 | 2.6 | CCN1CCN(c2nc(-c3ccc(S(=O)(=O)NC)cc3)cc3ccccc23)CC1 [Example 361, 1-(4-ethylpiperazin-1-yl)-3-[4-(N-methylsulfamoyl)phenyl]isoquinoline dihydrochloride]
15.2 | 0.41 | CCN1CCN(c2nc(-c3ccc(CC(C)CO)cc3)cc3ccsc23)CC1 (centres unmarked) [Example 441, 7-(4-ethylpiperazin-1-yl)-5-[4-(3-hydroxy-2-methylpropyl)phenyl]thieno[2,3-c]pyridine dihydrochloride]

Further lines, the molecule ahead of its results:

Structure (SMILES) | Ki (serotonin 1A receptor) [nM] | Ki (serotonin 2 receptor) [nM]
CCN1CCN(c2nc(NC(=O)c3ccccc3)cc3ccccc23)CC1 [Example 421, 3-benzamide-1-(4-ethylpiperazin-1-yl)isoquinoline] | 9.47 | 129
CCN1CCN(c2nc(-c3cccc(OC)c3)cc3ccccc23)CC1 [Example 9, 1-(4-ethylpiperazin-1-yl)-3-(3-methoxyphenyl)isoquinone Dihydrochloride] | 57 | 24.5
CCN1CCN(c2nc(-c3ccc(OC)cc3)nc3ccccc23)CC1 [Example 427, 4-(4-ethylpiperazin-1-yl)-2-(4-methoxyphenyl)quinazoline Dihydrochloride] | 80.9 | 300
CCN1CCN(c2nc(-c3cccc(CCCO)c3)cc3ccccc23)CC1 [Example 418, 1-(4-ethylpiperazin-1-yl)-3-[3-(3-hydroxypropyl)phenyl]isoquinoline] | 54.5 | 17.4
CCN1CCN(c2nc(-c3ccc(N4CCOCC4)nc3)cc3ccccc23)CC1 [Example 147, 1-(4-ethylpiperazin-1-yl)-3-[2-(morpholin-4-yl)pyridin-5-yl]isoquinoline trihydrochloride] | 6.5 | 1.7
CCN1CCN(c2nc(NS(=O)(=O)c3ccc(OC)cc3)cc3ccccc23)CC1 [Example 423, 1-(4-ethylpiperazin-1-yl)-3-(4-methoxybenzenesulfonamide)isoquinoline] | 9.81 | 332
CCN1CCN(c2nc(-c3ccc4c(c3)CCC4O)cc3ccccc23)CC1 (centres unmarked) [Example 415, 1-(4-ethylpiperazin-1-yl)-3-(1-hydroxyindan-5-yl)isoquinoline] | 3.6 | 11.6
CCN1CCN(c2nc(-c3ccc(CCCO)nc3)cc3ccccc23)CC1 [Example 135, 1-(1-Ethylpiperazin-4-yl)-3-[2-(3-Hydroxypropyl)Pyridin-5-yl]Isoquinoline] | 3.4 | 18.9
CCN1CCN(c2nc(-c3ccc(OCCOC)nc3)cc3ccsc23)CC1 [Example 269, 5-[2-(2-methoxyethoxy)pyridin-5-yl]-7-(4-ethylpiperazin-1-yl)-thieno[2,3-c]pyridine hydrochloride] | 15.5 | 58.4
CCN1CCN(c2nc(-c3ccc(C(O)c4nccs4)cc3)cc3ccccc23)CC1 (centres unmarked) [Example 412, 1-(4-ethylpiperazin-1-yl)-3-[4-(1,3-thiazol-2-yl)hydroxymethylphenyl]isoquinoline] | 19.1 | 41.4
CCN1CCN(c2nc(-c3ccc(OCCO)nc3)cc3ccccc23)CC1 [Example 125, 1-(1-Ethylpiperazin-4-yl)-3-[2-(2-Hydroxyethoxy)Pyridin-5-yl]Isoquinoline] | 27.1 | 6.9
CCN1CCN(c2nc(-c3ccc(C(C)(C)CCO)cc3)cc3ccsc23)CC1 [Example 443, 7-(4-ethylpiperazin-1-yl)-5-[4-(3-hydroxy-1,1-dimethylpropyl)phenyl]thieno[2,3-c]pyridine dihydrochloride] | 10.2 | 1.85
CCN1CCN(c2nc(/C=C/c3ccccc3OC)cc3ccccc23)CC1 [Example 195, 1-(1-Ethylpiperazin-4-Yl)-3-[Trans-2-(2-Methoxyphenyl)Ethenyl]Isoquinoline Oxalate] | 23 | 37.2
CCN1CCN(c2nc(-c3ccc(OCCCS(C)(=O)=O)cc3)cc3ccccc23)CC1 [Example 55, 3-[4-(3-Methylsulfonpropoxy)Phenyl]-1-(4-Ethylpiperazin-1-Yl)Isoquinoline Hydorchloride] | 10.4 | 15.3
CCN1CCN(c2nc(C#Cc3cncc(CCCOC)c3)cc3ccccc23)CC1 [Example 186, 1-(1-Ethylpiperazin-4-Yl)-3-[3-(3-Methoxypropyl)-5-Pyridyl]Ethynylisoquinoline] | 2.83 | 4.5
CCN1CCN(c2nc(/C=C\c3ccc(OC)cc3)cc3ccccc23)CC1 [Example 191, 1-(1-Ethylpiperazin-4-Yl)-3-[Cis-2-(4-Methoxyphenyl)Ethenyl]Isoquinoline Oxalate] | 13 | 0.93
CCN1CCN(c2nc(-c3ccc(OCC(C)O)cc3)cc3sccc23)CC1 (centres unmarked) [Example 287, 4-(4-ethylpiperazin-1-yl)-6-[4-(2-hydroxypropoxy)phenyl]thieno[3,2-c]pyridine] | 27.9 | 0.87
